Patent US20130065757A1, “CHEMICAL COMPOUNDS” (Syngenta Limited, priority 2010, published 2013)

Key:
[1] = test system: Echinochloa crus-galli (ECHCG); assay: Post-emergence biological efficacy, glasshouse pot test; type: in vivo; settings: 312 h, 1,000 g/ha, post-emergence (sprayed after 8 days), evaluated after 13 days, 100=total damage, 0=no damage, read-out: Percentage damage caused to weed species, post-emergence, ECHCG
Procedure: (§1) Seeds of Alopecurus myosuroides (ALOMY), Setaria faberi (SETFA), Echinochloa crus-galli (ECHCG), Solanum nigrum (SOLNI), Amaranthus retroflexus (AMARE) and Ipomoea hederaceae (IPOHE) were sown in standard soil in pots. After cultivation for 8 days under controlled conditions in a glasshouse (at 24/16° C., day/night; 14 hours light; 65% humidity), the plants were sprayed with an aqueous spray solution derived from the formulation of the technical active ingredient in acetone/water (50:50) solution containing 0.5% Tween 20 (polyoxyethylene sorbitan monolaurate, CAS RN 9005-64-5) to give a final dose of 1000 g/ha of test compound.
(§2) The test plants were then grown on under controlled conditions in a glasshouse (at 24/16° C., day/night; 14 hours light; 65% humidity) and watered twice daily. After 13 days the test was evaluated (100=total damage to plant; 0=no damage to plant).

[2] = test system: Alopecurus myosuroides (ALOMY); assay: as above; type: in vivo; settings: 312 h, 1,000 g/ha, post-emergence (sprayed after 8 days), evaluated after 13 days, 100=total damage, 0=no damage, read-out: Percentage damage caused to weed species, post-emergence, ALOMY
Procedure: as §1, §2

[3] = test system: Ipomoea hederaceae (IPOHE); assay: as above; type: in vivo; settings: 312 h, 1,000 g/ha, post-emergence (sprayed after 8 days), evaluated after 13 days, 100=total damage, 0=no damage, read-out: Percentage damage caused to weed species, post-emergence, IPOHE
Procedure: as §1, §2

[4] = test system: Amaranthus retroflexus (AMARE); assay: as above; type: in vivo; settings: 312 h, 1,000 g/ha, post-emergence (sprayed after 8 days), evaluated after 13 days, 100=total damage, 0=no damage, read-out: Percentage damage caused to weed species, post-emergence, AMARE
Procedure: as §1, §2

Setaria faberi (SETFA) [5] = assay: as above; type: in vivo; settings: 312 h, 1,000 g/ha, post-emergence (sprayed after 8 days), evaluated after 13 days, 100=total damage, 0=no damage, read-out: Percentage damage caused to weed species, post-emergence, SETFA
Procedure: as §1, §2

Solanum nigrum (SOLNI) [6] = assay: as above; type: in vivo; settings: 312 h, 1,000 g/ha, post-emergence (sprayed after 8 days), evaluated after 13 days, 100=total damage, 0=no damage, read-out: Percentage damage caused to weed species, post-emergence, SOLNI
Procedure: as §1, §2

Maize cv CLAXXON = assay: Safening on corn, general crop injury; type: in vivo; settings: 200 g ai/ha (with safener 200 + 200), sprayed at 3-leaf stage, 100% total damage, 0% no damage
Procedure: (§3) Maize seeds were sown into standard soil in pots and cultivated under controlled conditions in a glasshouse (at 24/18° C. day/night; 16 hours light; 65% humidity).
(§4) When the plants were at the vegetative stage of 3 leaves they were sprayed with an aqueous spray solution containing the components of the invention alone and where appropriate the herbicide safener (N-(2-methoxybenzoyl)-4-[(methylaminocarbonyl)amino]benzenesulfonamide). All the compounds used for the spray solution were present as an EC or SC formulation respectively. In addition a non-ionic surfactant (X-77 Spreader) was added to form a 0.2% v/v solution.
(§5) The spray solution was applied with a cabinet tracksprayer with a flat fan nozzle (Teejet 11002VS) and an application volume of 200 L/ha (at 2 bar).
(§6) The test plants were then grown on in a glasshouse under controlled conditions (at 24/18° C. day/night; 16 hours light; 65% humidity) and watered twice a day. After 7 and 17 days the test was evaluated for general crop injury (100% equals total damage to plant; 0% equals no damage to plant).

Maize cv GARLAND = assay: Safening on corn, general crop injury; type: in vivo; settings: 200 g ai/ha (with safener 200 + 200), sprayed at 3-leaf stage, 100% total damage, 0% no damage
Procedure: as §3, §4, §5, §6

[7] = test system: Echinochloa crus-galli (ECHCG); assay: Pre-emergence biological efficacy, glasshouse pot test; type: in vivo; settings: 312 h, 1,000 g/ha, evaluated after 13 days, 100=total damage, 0=no damage, read-out: Percentage damage caused to weed species, pre-emergence, ECHCG
Procedure: as §1, with “one day” for “8 days”
(§7) The test plants were then grown under controlled conditions in the glasshouse (at 24/16° C., day/night; 14 hours light; 65% humidity) and watered twice daily. After 13 days the test was evaluated (100=total damage to plant; 0=no damage to plant).

[8] = test system: Alopecurus myosuroides (ALOMY); assay: as above; type: in vivo; settings: 312 h, 1,000 g/ha, evaluated after 13 days, 100=total damage, 0=no damage, read-out: Percentage damage caused to weed species, pre-emergence, ALOMY
Procedure: as §1, with “one day” for “8 days”
as §7

[9] = test system: Ipomoea hederaceae (IPOHE); assay: as above; type: in vivo; settings: 312 h, 1,000 g/ha, evaluated after 13 days, 100=total damage, 0=no damage, read-out: Percentage damage caused to weed species, pre-emergence, IPOHE
Procedure: as §1, with “one day” for “8 days”
as §7

[10] = test system: Amaranthus retroflexus (AMARE); assay: as above; type: in vivo; settings: 312 h, 1,000 g/ha, evaluated after 13 days, 100=total damage, 0=no damage, read-out: Percentage damage caused to weed species, pre-emergence, AMARE
Procedure: as §1, with “one day” for “8 days”
as §7

Setaria faberi (SETFA) [11] = assay: as above; type: in vivo; settings: 312 h, 1,000 g/ha, evaluated after 13 days, 100=total damage, 0=no damage, read-out: Percentage damage caused to weed species, pre-emergence, SETFA
Procedure: as §1, with “one day” for “8 days”
as §7

Solanum nigrum (SOLNI) [12] = assay: as above; type: in vivo; settings: 312 h, 1,000 g/ha, evaluated after 13 days, 100=total damage, 0=no damage, read-out: Percentage damage caused to weed species, pre-emergence, SOLNI
Procedure: as §1, with “one day” for “8 days”
as §7

SMILES	melting point	pest or weed control at 1000 g/ha [1] [%]	pest or weed control at 1000 g/ha [2] [%]	pest or weed control at 1000 g/ha [3] [%]	pest or weed control at 1000 g/ha [4] [%]	pest or weed control at 1000 g/ha (Setaria faberi (SETFA) [5]) [%]	pest or weed control at 1000 g/ha (Solanum nigrum (SOLNI) [6]) [%]	Percentage damage caused to corn, Maize cv CLAXXON, 7 days after application (Maize cv CLAXXON) [%]	Percentage damage caused to corn, Maize cv CLAXXON, 17 days after application (Maize cv CLAXXON) [%]	Percentage damage caused to corn, Maize cv GARLAND, 7 days after application (Maize cv GARLAND) [%]	Percentage damage caused to corn, Maize cv GARLAND, 17 days after application (Maize cv GARLAND) [%]	pest or weed control at 1000 g/ha [7] [%]	pest or weed control at 1000 g/ha [8] [%]	pest or weed control at 1000 g/ha [9] [%]	pest or weed control at 1000 g/ha [10] [%]	pest or weed control at 1000 g/ha (Setaria faberi (SETFA) [11]) [%]	pest or weed control at 1000 g/ha (Solanum nigrum (SOLNI) [12]) [%]
C=Cc1c(N)cc(Cl)nc1C(=O)O [Compound 1-4, 4-amino-6-chloro-3-ethenyl-pyridine-2-carboxylic acid]	141 to 146 °C (dec.)	80	80	70	100	100	100	60	50	60	65	90	90	100	100	100	100
C=Cc1c(C(=O)O)nc(Cl)c(F)c1N [Compound 1-12, 4-Amino-6-chloro-3-ethenyl-5-fluoro-pyridine-2-carboxylic acid]		90	90	100	100	90	90	60	50	60	50	90	90	100	100	100	100
COC(=O)c1nc(Cl)cc(N)c1C=C(C)C [Compound 2-165, 4-Amino-6-chloro-3-(2-methylprop-1-enyl)-pyridine-2-carboxylic acid methyl ester]		70	70	70	100	90	90					70	80	90	100	90	100
COC(=O)c1nc(Cl)cc(N)c1-c1ccc(Cl)cc1 [Compound 2-168, 4-Amino-6-chloro-3-(4-chlorophenyl)-pyridine-2-carboxylic acid methyl ester]		10	20	70	100	20	80					20	30	80	90	0	80
C=Cc1c(NCC(C)O)cc(Cl)nc1C(=O)OC (stereo not drawn) [Compound 21-4, 6-Chloro-3-ethenyl-4-(2-hydroxypropylamino)-pyridine-2-carboxylic acid methyl ester]		80	70	50	100	80	100					90	90	80	100	90	100
C=Cc1c(NC2CC2)cc(Cl)nc1C(=O)OC [Compound 23-4, 6-Chloro-4-cyclopropylamino-3-ethenyl-pyridine-2-carboxylic acid methyl ester]		30	60	70	100	80	100					70	70	80	100	80	100
C=Cc1c(NC2CCCC2)cc(Cl)nc1C(=O)OC [Compound 27-4, 6-Chloro-4-cyclopentylamino-3-ethenyl-pyridine-2-carboxylic acid methyl ester]		10	10	60	100	70	80					10	50	50	100	70	100
C=Cc1c(N2CCCC2)cc(Cl)nc1C(=O)OC [Compound 31-4, 6-Chloro-3-ethenyl-4-pyrrolidin-1-yl-pyridine-2-carboxylic acid methyl ester]		20	20	70	90	50	90					10	60	80	100	50	90
